In patent US20230011571A1, “SMALL MOLECULE FURIN INHIBITORS FOR TREATING INFECTIOUS DISEASES” (BP Asset V, Inc., priority 2019, published 2023):

Experiments:
Type in all cases: cell-based
dengue virus (DENV) = test: microbe, parasite or virus in culture; settings: Dengue virus, Vero, 120 h, read-out: Percent viral inhibition DENY
[1] = tested on: Chikungunya virus (CHIKV); test: microbe, parasite or virus in culture; settings: Chikungunya virus, Vero, 48 h, read-out: Percent viral inhibition CHKV
Marburg virus (MARV) = test: organism not typed; settings: Vero, 72 h, read-out: Percent viral inhibition MARV

| Compound | inhibition at 1 µM (dengue virus (DENV)) | inhibition at 1 µM [1] | inhibition at 1 µM (Marburg virus (MARV)) |
| --- | --- | --- | --- |
| C[C@]1(O)C[C@H](N2CCN(c3ncc(Oc4cc(CN5CCC(CC(=O)O)CC5)cc(-c5cc(Cl)cc(Cl)c5)n4)cn3)CC2)C1 [Example 25, 2-(1-((2-(3,5-dichlorophenyl)-6-((2-(4-((1r,3r)-3-hydroxy-3-methylcyclobutyl)piperazin-1-yl)pyrimidin-5-yl)oxy)pyridin-4-yl)methyl)piperidin-4-yl)acetic acid] | 13.7% | 26.3% | 65.5% |
| CC(=O)NCC1CCN(Cc2cc(Oc3ccc(N4CCN([C@H]5C[C@@H](NS(C)(=O)=O)C5)CC4)nc3)nc(-c3cc(Cl)cc(Cl)c3)c2)CC1 [Example 27, N-((1-((2-(3,5-dichlorophenyl)-6-((6-(4-((cis)-3-(methylsulfonamido)cyclobutyl)piperazin-1-yl)pyridin-3-yl)oxy)pyridin-4-yl)methyl)piperidin-4-yl)methyl)acetamide] | 51.1% | 26.8% | 50.3% |
| CC(=O)NCC1CCN(Cc2cc(Oc3ccc(N4CCN(CCP(=O)(O)O)CC4)nc3)nc(-c3cc(Cl)cc(Cl)c3)c2)CC1 [Example 30, (2-(4-(5-((4-((4-(acetamidomethyl)piperidin-1-yl)methyl)-6-(3,5-dichlorophenyl)pyridin-2-yl)oxy)pyridin-2-yl)piperazin-1-yl)ethyl)phosphonic acid] | 44.3% | 10.1% | 15.5% |
| CC(=O)NCC1CCN(Cc2cc(Oc3ccc(N4CCN(CCOC(N)=O)CC4)nc3)nc(-c3cc(Cl)cc(Cl)c3)c2)CC1 [Example 31, 2-(4-(5-((4-((4-(acetamidomethyl)piperidin-1-yl)methyl)-6-(3,5-dichlorophenyl)pyridin-2-yl)oxy)pyridin-2-yl)piperazin-1-yl)ethylcarbamate] | 38.9% | 18.7% | 61.4% |
| CC(=O)NCC1CCN(Cc2cc(Oc3ccc(N4CCN(CCN(C)S(C)(=O)=O)CC4)nc3)nc(-c3cc(Cl)cc(Cl)c3)c2)CC1 [Example 32, N-((1-((2-(3,5-dichlorophenyl)-6-((6-(4-(2-(N-methylmethylsulfonamido)ethyl)piperazin-1-yl)pyridin-3-yl)oxy)pyridin-4-yl)methyl)piperidin-4-yl)methyl)acetamide] | 34.2% | 49.4% | 63.5% |
| CC(=O)NCC1CCN(Cc2cc(Oc3ccc(N4CCN(C(=O)CCC(=O)O)CC4)nc3)nc(-c3cc(Cl)cc(Cl)c3)c2)CC1 [Example 33, 4-(4-(5-((4-((4-(acetamidomethyl)piperidin-1-yl)methyl)-6-(3,5-dichlorophenyl)pyridin-2-yl)oxy)pyridin-2-yl)piperazin-1-yl)-4-oxobutanoic acid] | 49.4% | 36.5% | 67.3% |
| CC(=O)NCC1CCN(Cc2cc(Oc3ccc(N4CCN(CC5(CO)CC5)CC4)nc3)nc(-c3cc(Cl)cc(Cl)c3)c2)CC1 [Example 34, N-((1-((2-(3,5-dichlorophenyl)-6-((6-(4-((1-(hydroxymethyl)cyclopropyl)methyl)piperazin-1-yl)pyridin-3-yl)oxy)pyridin-4-yl)methyl)piperidin-4-yl)methyl)acetamide] | 46.8% | 1.42% | 30.3% |
| CCNC(=O)CC1CCN(Cc2cc(Oc3ccc(N4CCN(CCCS(C)(=O)=O)CC4)nc3)nc(-c3cc(Cl)cc(Cl)c3)c2)CC1 [Example 36, 2-(1-((2-(3,5-dichlorophenyl)-6-((6-(4-(3-(methylsulfonyl)propyl)piperazin-1-yl)pyridin-3-yl)oxy)pyridin-4-yl)methyl)piperidin-4-yl)-N-ethylacetamide] | 38% | 5.78% | 52.5% |
| CNCc1cc(Oc2cnc(N3CCN(CCCS(C)(=O)=O)CC3)nc2)nc(-c2cc(Cl)cc(Cl)c2)c1 [Example 37, 1-(2-(3,5-dichlorophenyl)-6-((2-(4-(3-(methylsulfonyl)propyl)piperazin-1-yl)pyrimidin-5-yl)oxy)pyridin-4-yl)-N-methylmethanamine] | 100% | 32.9% | 56.6% |
| NS(=O)(=O)CC1CCN(Cc2cc(Oc3ccc(N4CCN(CCC(=O)O)CC4)nc3)nc(-c3cc(Cl)cc(Cl)c3)c2)CC1 [Example 38, 3-(4-(5-((6-(3,5-dichlorophenyl)-4-((4-(sulfamoylmethyl)piperidin-1-yl)methyl)pyridin-2-yl)oxy)pyridin-2-yl)piperazin-1-yl)propanoic acid] | 14.2% | 39.1% | 50% |
| CS(=O)(=O)CC1CCN(Cc2cc(Oc3ccc(N4CCN(CCC(=O)O)CC4)nc3)nc(-c3cc(Cl)cc(Cl)c3)c2)CC1 [Example 39, 3-(4-(5-((6-(3,5-dichlorophenyl)-4-((4-((methylsulfonyl)methyl)piperidin-1-yl)methyl)pyridin-2-yl)oxy)pyridin-2-yl)piperazin-1-yl)propanoic acid] | 54.7% | 23.7% | 60.1% |
| CNC(=O)NCC1CCN(Cc2cc(Oc3ccc(N4CCN(CCO)CC4)nc3)nc(-c3cc(Cl)cc(Cl)c3)c2)CC1 [Example 40, 1-((1-((2-(3,5-dichlorophenyl)-6-((6-(4-(2-hydroxyethyl)piperazin-1-yl)pyridin-3-yl)oxy)pyridin-4-yl)methyl)piperidin-4-yl)methyl)-3-methylurea] | 0% | 3.24% | 0% |
| CNC(=O)NCC1CCN(Cc2cc(Oc3ccc(N4CCN(CCC(=O)O)CC4)nc3)nc(-c3cc(Cl)cc(Cl)c3)c2)CC1 [Example 41, 3-(4-(5-((6-(3,5-dichlorophenyl)-4-((4-((3-methylureido)methyl)piperidin-1-yl)methyl)pyridin-2-yl)oxy)pyridin-2-yl)piperazin-1-yl)propanoic acid] | 68.7% | 30.1% | 43% |
| CC(=O)NCC1CCN(Cc2cc(Oc3ccc(N)cc3)cc(-c3cc(Cl)cc(Cl)c3)c2)CC1 [Example 42, N-((1-((5-(4-aminophenoxy)-3′,5′-dichloro-[1,1′-biphenyl]-3-yl)methyl)piperidin-4-yl)methyl)acetamide] | 24% | 7.42% | 0% |
| CS(=O)(=O)NCC1CCN(Cc2cc(Oc3ccc(N4CCN(CCC(=O)O)CC4)nc3)nc(-c3cc(Cl)cc(Cl)c3)c2)CC1 [Example 44, 3-(4-(5-((6-(3,5-dichlorophenyl)-4-((4-(methylsulfonamidomethyl)piperidin-1-yl)methyl)pyridin-2-yl)oxy)pyridin-2-yl)piperazin-1-yl)propanoic acid] | 69% | 35.5% | 49% |
| CC(=O)NCC1CCN(Cc2cc(Oc3ccc(N)cn3)cc(-c3cc(Cl)cc(Cl)c3)c2)CC1 [Example 45, N-((1-((5-((5-aminopyridin-2-yl)oxy)-3′,5′-dichloro-[1,1′-biphenyl]-3-yl)methyl)piperidin-4-yl)methyl)acetamide] | 0% | 0% | 18.4% |
| CNC(=O)NCC1CCN(Cc2cc(Oc3cnc(N4CCN(CCCS(N)(=O)=O)CC4)nc3)nc(-c3cc(Cl)cc(Cl)c3)c2)CC1 [Example 48, 3-(4-(5-((6-(3,5-dichlorophenyl)-4-((4-((3-methylureido)methyl)piperidin-1-yl)methyl)pyridin-2-yl)oxy)pyrimidin-2-yl)piperazin-1-yl)propane-1-sulfonamide] | 26% | 15.2% | 15.7% |
| COC(=O)NCC1(F)CCN(Cc2cc(Oc3cnc(N4CCN(CCC(=O)O)CC4)nc3)nc(-c3cc(Cl)cc(Cl)c3)c2)CC1 [Example 51, 3-(4-(5-((6-(3,5-dichlorophenyl)-4-((4-fluoro-4-(((methoxycarbonyl)amino)methyl)piperidin-1-yl)methyl)pyridin-2-yl)oxy)pyrimidin-2-yl)piperazin-1-yl)propanoic acid] | 56.7% | 21.1% | 43.6% |
| CN1CCN(c2ncc(Oc3cc(CN4CCC(CCO)CC4)cc(-c4cc(Cl)cc(Cl)c4)n3)cn2)CC1 [Example 52, 2-(1-((2-(3,5-dichlorophenyl)-6-((2-(4-methylpiperazin-1-yl)pyrimidin-5-yl)oxy)pyridin-4-yl)methyl)piperidin-4-yl)ethanol] | 45.6% | 26.3% | 29.9% |
| CN1CCN(c2ncc(Oc3cc(CN4CCC(OCC(=O)O)CC4)cc(-c4cc(Cl)cc(Cl)c4)n3)cn2)CC1 [Example 53, 2-((1-((2-(3,5-dichlorophenyl)-6-((2-(4-methylpiperazin-1-yl)pyrimidin-5-yl)oxy)pyridin-4-yl)methyl)piperidin-4-yl)oxy)acetic acid] | 42.5% | 30% | 53.5% |
| NC(=O)OCCN1CCN(Cc2cc(Oc3cnc(N4CCN(CCC(=O)O)CC4)nc3)nc(-c3cc(Cl)cc(Cl)c3)c2)CC1 [Example 54, 3-(4-(5-((4-((4-(2-(carbamoyloxy)ethyl)piperazin-1-yl)methyl)-6-(3,5-dichlorophenyl)pyridin-2-yl)oxy)pyrimidin-2-yl)piperazin-1-yl)propanoic acid] | 70.5% | 36.8% | 62.7% |
| NC(=O)OCCN1CCN(Cc2cc(Oc3ccc(N4CCN(CCC(=O)O)CC4)nc3)nc(-c3cc(Cl)cc(Cl)c3)c2)CC1 [Example 55, 3-(4-(5-((4-((4-(2-(carbamoyloxy)ethyl)piperazin-1-yl)methyl)-6-(3,5-dichlorophenyl)pyridin-2-yl)oxy)pyridin-2-yl)piperazin-1-yl)propanoic acid] | 3.58% | 16.8% | 40.2% |
